How the values were obtained:
[1] = Specific surface area by BET-nitrogen adsorption analysis; format: physicochemical
Description: The specific surface area (SSA) is assessed with a Quantachrome NOVA touch 2LX. The N2 is used as measuring gas and BET method is used to evaluate SSA. The following setup has been used for the measurement: • Adsorbate: Nitrogen • Sample cell: 9 mm large bulb cell, long; Measurement is performed with the corresponding filler rod • Sample masses*: approximately ¾ of cell bulb • Degassing conditions: 960 min at 30° C. under vacuum (ramping 10° C./min) • Measured points of isotherm: 11 equidistant points in the range 0.05-0.30 p/p0** • Points analyzed using BET: 7equidistant points from whole range 0.05-0.20 p/p0 • Use data reduction adsorbate model: Yes (N2) • Bath thermal delay: at least 600 s • P0 Option: continuous (measured each 30 minutes) • Void volume mode: Helium measure • Equilibration time: 160 s • Equilibration timeout: 2400 s • Tolerance: 0.05 • * Used amount of sample depends on its SSA and other physical parameters. The real surface area of sample in measuring cell should be between 1 m^2/g and 20 m^2/g. • ** Points above or below this range can be measured.

[2] = Particle size distribution by LASER diffraction (Malvern Mastersizer 2000); format: physicochemical
Description: The particle size distribution (PSD) is determined with LASER diffraction analyzer Malvern Mastersizer 2000 which operates in size ranges from 0.02 μm to 2,000 μm. The wet dispersion is prepared from dry powder sample and added to the dispersion unit. Gained raw data are computed by software to PSD with the use of Mie theory. This method is based on Ph. Eur. Method 2.9.31 and USP <429>.

[3] = cited from earlier work

surface area [1]: 6.9 m^2/g
D90 [2]: 11.5 μm
Compound: CC(=O)c1c(C)c2cnc(Nc3ccc(N4CCNCC4)cn3)nc2n(C2CCCC2)c1=O [Palbociclib]
solubility ([3]; above pH 4): reduces significantly
solubility in water ([3]; at or below pH 4): high-solubility compound

— patent US11529353B2, “Pharmaceutical composition comprising Palbociclib” (Synthon B.V., priority 2017, dated 2022)
